Test results reported in patent US12514267B2, “Oligosaccharide compositions for use as animal feed and methods of producing thereof” (DSM Nutritional Products, LLC, priority 2015, dated 2026).

Tested on: nursery pigs
Assay: Growth performance of nursery pigs: 0-42d BWG, ADG, ADFI, FCR, with and without Mecadox (Examples 34/35)
Assay type: in vivo
Experimental: Pigs: Approximately 3,240 pigs were placed in three rooms at a nursery farm with 27 pigs per pen and 15 pens per treatment using a randomized complete block design (a total of 8 treatments across 40 pens in each of 3 rooms). All pens were balanced with 14 gilts and 13 barrows. At weaning, weight, age and sow farm source were recorded. At weaning, pigs were placed with the same number of pigs from each sow farm per pen.
Allotment: Prior to allotment and each weighing event, standard weights were placed on each corner of the scale to ensure that the scale was correctly calibrated. At placement, the average weight of the pigs in each pen were determined and the data was provided as soon as possible for treatment allotment. At weaning, pens were ranked by average weight and weight blocks and pens were assigned to the ranked weights. Treatments were then randomly assigned within weight blocks. When the treatment assignments were done, pen assignments were provided also as soon as possible, and dietary treatments information was entered into the feeding system. Pigs were granted free access to feed and water throughout the trial.
Schedule: At arrival, the pigs were allotted to pens. A common pelleted diet was fed to all pigs for 7 days. This diet contained 55 ppm of Mecadox (50 g/ton). Dietary treatments were fed from day 7 to the end of the nursery phase (approximately 55 lb). Pens were allotted to dietary treatments on day 7. Diets were fed in two phases with the first phase from day 7 to 21 after weaning and the second phase from day 21 to the end of the nursery phase (day 21 to 42 after weaning).
Treatments: Dietary treatments were randomly assigned to 40 pens in each of 3 rooms for 5 replications per room and 15 replications total. The 8 treatments were structured as a 2×4 factorial with two diet types (with and without antibiotic; 55 ppm of Mecadox) and four levels of gluco-oligosaccharide (0, 200, 400 or 600 ppm). The gluco-oligosaccharides were prepared according to the procedures set forth in Examples above. The gluco-oligosaccharides were provided on a corn meal carrier, as described in Example 18, such that the 600 ppm dose was obtained with a 0.25% final diet inclusion rate (5 lb premix per ton final feed). All diets contained the same growth promoting levels of Cu and Zn at 200 ppm Cu and 2,000 ppm Zn, in the phase 2 diets and 200 ppm Cu in the phase 3 diet. The diets containing 0 and 0.25% of the premix containing the gluco-oligosaccharides were blended to form the intermediate treatments.
Diet Preparation: Diets were fed in meal form. The four diets required were the control diets for each diet type and the diets containing 0.25% gluco-oligosaccharide premix. The actual oligosaccharide levels in the test were 0, 200, 400, and 600 ppm with a carrier used such that the premix at 0.25% (5 lb/ton) will provide 600 ppm oligosaccharide.
Live Animal Data Collection: Pigs were weighed, counted and feed disappearance determined every 7 days during the experiment. Prior to each weighing event standard weights were placed on each corner of the scale to ensure proper calibration of the scale. Pig inventory, weight, removal and feed intake data were recorded and maintained throughout the trial. Data were collected on the standard data collection spreadsheet.
Statistical analysis: Pens were randomly allotted to treatments using body weight as a blocking factor. Weight block was added to the model as a random effect. Main effects and interaction between diet type and gluco-oligosaccharide level were determined. Data was analyzed for linear and quadratic effect of gluco-oligosaccharide levels.
The BWG benefit, ADG benefit, ADFI benefit, and FCR benefit were calculated for 0-42 days by taking the ratio of the respective values with respect to their corresponding controls and performing linear regression to determine the dose-effect of the gluco-oligosaccharide, resulting in the following regression equations set forth in Table 12 below. […]

[1] = 0-42d, Mecadox 55 ppm, Oligo 0 ppm
[2] = 0-42d, from regression equations, antibiotic growth promoter alone
[3] = nursery pigs, vs control, Mecadox 55 ppm, gluco-oligosaccharide 600 ppm without antibiotic (from regression)

Compound: COC(=O)N/N=C/c1c[n+]([O-])c2ccccc2[n+]1[O-] [Mecadox]
- ADFI [1]: 1.37 lbs/day
- ADG [1]: 0.93 lbs/day
- BWG [1]: 40.69 lbs
- FCR [1]: 1.47 lbs/lbs
- ADFI Benefit [2]: 2.4%
- ADG Benefit [2]: 3.2%
- BWG Benefit [2]: 2.5%
- FCR Benefit [2]: −0.2%
- 0-42d FCR (nursery pigs, vs control, Mecadox 55 ppm, gluco-oligosaccharide 600 ppm): did not improve
- improved 0-42d ADG [3]: 3.2%
- improved 0-42d ADGI [3]: 2.4%
- improved 0-42d BWG [3]: 2.5%
